# Literature values, collected in US20200281958A1, “STABLE FORMULATIONS FOR THE ORAL ADMINISTRATION OF AMPHOTERICIN B AND RELATED METHODS” (priority 2015, published 2020).
# Experiments:
# [1] = crystalline
# [2] = test system: monocytic cell lines and primary macrophages/monocytes
# [3] = test system: latently infected T cell lines
structure (smiles),measurement,setting,value
"C[C@@H]1[C@H](O)[C@@H](C)/C=C/C=C/C=C/C=C/C=C/C=C/C=C/[C@H](O[C@@H]2O[C@H](C)[C@@H](O)[C@H](N)[C@@H]2O)C[C@@H]2O[C@](O)(C[C@@H](O)C[C@@H](O)[C@H](O)CC[C@@H](O)C[C@@H](O)CC(=O)O[C@H]1C)C[C@H](O)[C@H]2C(=O)O (relative stereo) [amphotericin B, [1R-(1R*,3S*,5R*,6R*,9R*,11R*,15S*,16R*,17R*,18S*,19E,21E,23E,25E, 27E,29E,31 E,33R*,35S*,36R*,37S)]-33-[(3-amino-3,6-dideoxy-β-D-mannopyranosyl)oxy] 1,3,5,6,9,11, 17,37-octahydroxy-15,16,18-trimethyl-13-oxo-14,39-dioxabicyclo-[33.3.1] nonatriaconta-19,21, 23,25,27,29,3 1-heptaene-36-carboxylic acid]",solubility in water,[1],insoluble in water
same,reactivation of HIV-1 replication,[2],reactivate HIV-1 replication
same,direct reactivation of latently infected T cell lines,[3]; T cell lines alone,did not directly reactivate
same,HIV-1 reactivation in T cell lines,[3]; co-culture with primary macrophages,partial HIV-1 reactivation
